The record followed here is ChEMBL document CHEMBL1144567, “Linker-modified triamine-linked acridine dimers: synthesis and cytotoxicity properties in vitro and in vivo” (Bioorg Med Chem, 2007).

Data set [1] is described as follows: Toxicity in ICR mouse. The format is organism-based. Particulars: in vivo.
Data set [2] concerns COLO 205. Kind of data set: Cytotoxicity against human COLO205 cells after 72 hrs by MTT assay. The format is cell-based. The settings on record: COLO 205, 72 h. For orientation: Formazan colour is commonly taken as a measure of viable cells.
A short description of data set [3]: Cytotoxicity against human HA22T cells after 72 hrs by MTT assay. The format is cell-based.
Data set [4] is described as follows: Cytotoxicity against SKBR3 cells after 72 hrs by MTT assay. The format is cell-based. The settings on record: Homo sapiens, SK-BR-3, 72 h.
Data set [5] has as its system MOLT-4. Nature of the data set: Cytotoxicity against MOLT4 cells after 72 hrs by MTT assay. Particulars: Homo sapiens, MOLT-4, 72 h.
In data set [6] the test system is COLO 205. Nature of the data set: Antitumor activity against human COLO205 cells implanted in SCID mouse at 22.5 mg/kg injected into tail vein. The format is functional. The settings on record: read-out: TGI.
Data set [7] relates to COLO 205. Nature of the data set: Antitumor activity against human COLO205 cells implanted in SCID mouse at 10 mg/kg injected into tail vein. The format is functional. Particulars: read-out: TGI.
The subject of data set [8] is Nucleic Acid. Kind of data set: Binding affinity to Escherichia coli JM83 pUC19 DNA assessed as DNA intercalation assay. The format is nucleic-acid assay.

pIC50: −log10 of the molar value.

A word on the pIC50: it is −log10 of the IC50, conventionally taken in molar units. In data set [1], `COc1ccc2nc3cc(Cl)ccc3c(NCCCN(C)CCCNc3c4ccc(Cl)cc4nc4ccc(OC)cc34)c2c1` registered an MTD of 22.5 mg/kg. Further, the pIC50 was 6.80 in data set [2], 6.21 in data set [3], 6.15 in data set [4] and over 7.70 in data set [5]. Also, the inhibition in vivo at 22.5 mg/kg in data set [6] turned out to be 2%.

For the compound `COc1ccc2nc3cc(Cl)ccc3c(NCCCN(CCCNc3c4ccc(Cl)cc4nc4ccc(OC)cc34)Cc3ccoc3)c2c1`, in data set [7], the inhibition in vivo at 10 mg/kg was 24%. Further, the MTD in data set [1] was determined as 10 mg/kg. Also, the pIC50 in data set [2] is 6.34; in data set [3] it was 6.44; in data set [4], 6.16; in data set [5], 8.00. The SC50 in data set [8] was 2 µM.
